Test results reported in the supplement of paper PMC10307832.

Legend:
Assay in all cases: relative viability (nuclei count vs DMSO), 5 days (fraction); higher = more cells survive
[1] = compound: COc1cc2ncn(-c3cc(OCc4ccccc4C(F)(F)F)c(C(N)=O)s3)c2cc1OC + C[C@@H](Oc1cc(-c2cnn(C3CCNCC3)c2)cnc1N)c1c(Cl)ccc(F)c1Cl [Crizotinib] (partner 1 µM)
Summary of the method: (§1)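 After 5 days of treatment, lung cancer cells in 1536-well plates were fixed and stained in a single step (final 0.05% Triton X-100, 1% formaldehyde, 1 ug/ml Hoechst) and their nuclei counted on 4× images. Treatment had been applied by pin tool the day after seeding as one drug alone or as a fixed anchor-drug dose with five library-drug doses (not always all listed) in √10 steps. Relative viability is the nuclei count of treated wells divided by that of vehicle wells, and values are medians of duplicate plates.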

[2] = compound: COc1cc2ncn(-c3cc(OCc4ccccc4C(F)(F)F)c(C(N)=O)s3)c2cc1OC + O=C(CCCCCCC(=O)Nc1ccccc1)NO [Vorinostat] (partner 1 µM)
Summary of the method: as §1

[3] = compound: COc1cc2ncn(-c3cc(OCc4ccccc4C(F)(F)F)c(C(N)=O)s3)c2cc1OC + CC1(C)CCC(c2ccc(Cl)cc2)=C(CN2CCN(c3ccc(C(=O)NS(=O)(=O)c4ccc(N[C@H](CCN5CCOCC5)CSc5ccccc5)c(S(=O)(=O)C(F)(F)F)c4)cc3)CC2)C1 [Navitoclax] (partner 0.5 µM)
Summary of the method: as §1

[4] = compound: COc1cc2ncn(-c3cc(OCc4ccccc4C(F)(F)F)c(C(N)=O)s3)c2cc1OC + Cc1cc(Nc2cc(N3CCN(C)CC3)nc(Sc3ccc(NC(=O)C4CC4)cc3)n2)n[nH]1 [Tozasertib] (partner 0.1 µM)
Summary of the method: as §1

| Cell Line | relative viability ([1]; first compound 0.05 µM) | relative viability ([1]; first compound 0.1581 µM) | relative viability ([1]; first compound 0.5 µM) | relative viability ([1]; first compound 1.581 µM) | relative viability ([1]; first compound 5 µM) | relative viability ([2]; first compound 0.05 µM) | relative viability ([2]; first compound 0.1581 µM) | relative viability ([2]; first compound 0.5 µM) | relative viability ([2]; first compound 1.581 µM) | relative viability ([2]; first compound 5 µM) | relative viability ([3]; first compound 0.05 µM) | relative viability ([3]; first compound 0.1581 µM) | relative viability ([3]; first compound 0.5 µM) | relative viability ([3]; first compound 1.581 µM) | relative viability ([3]; first compound 5 µM) | relative viability ([4]; first compound 0.05 µM) | relative viability ([4]; first compound 0.1581 µM) | relative viability ([4]; first compound 0.5 µM) | relative viability ([4]; first compound 1.581 µM) | relative viability ([4]; first compound 5 µM) |
| --- | --- | --- | --- | --- | --- | --- | --- | --- | --- | --- | --- | --- | --- | --- | --- | --- | --- | --- | --- | --- |
| NCI-H1437 | 1.03 | 0.812 | 0.659 | 0.164 | 0.101 | 0.717 | 0.779 | 0.367 | 0.334 | 0.326 | 1.13 | 1.07 | 0.151 | 0.13 | 0.119 | 0.457 | 0.456 | 0.377 | 0.354 | 0.251 |
| NCI-H596 | 0.959 | 0.965 | 0.991 | 0.814 | 0.401 | 0.598 | 0.405 | 0.515 | 0.246 | 0.162 | 0.782 | 0.869 | 0.58 | 0.262 | 0.16 | 0.867 | 0.843 | 0.705 | 0.383 | 0.359 |
| 201T | 1.05 | 1.08 | 0.967 | 0.878 | 0.293 | 1.01 | 0.994 | 0.815 | 0.283 | 0.195 | 1.26 | 1.2 | 1.19 | 0.902 | 0.326 | 1.03 | 1.09 | 0.809 | 0.426 | 0.324 |
| ChaGo-K-1 | 1.07 | 0.944 | 0.831 | 0.434 | 0.38 | 0.775 | 0.721 | 0.629 | 0.232 | 0.162 | 0.964 | 0.535 | 0.939 | 0.378 | 0.273 | 0.212 | 0.219 | 0.197 | 0.251 | 0.184 |
| NCI-H1650 | 1.03 | 1.03 | 0.765 | 0.17 | 0.194 | 0.484 | 0.555 | 0.36 | 0.154 | 0.133 | 1.29 | 1.2 | 0.471 | 0.153 | 0.121 | 0.304 | 0.324 | 0.221 | 0.225 | 0.154 |
| LOU-NH91 | 0.772 | 0.779 | 0.626 | 0.483 | 0.459 | 0.903 | 1.04 | 0.683 | 0.365 | 0.29 | 0.715 | 0.816 | 0.592 | 0.445 | 0.399 | 0.653 | 0.641 | 0.399 | 0.29 | 0.31 |
| HOP-62 | 0.765 | 0.935 | 0.824 | 0.206 | 0.101 | 0.687 | 0.706 | 0.202 | 0.129 | 0.0896 | 0.92 | 0.984 | 0.843 | 0.232 | 0.814 | 0.361 | 0.334 | 0.241 | 0.175 | 0.201 |
| NCI-H1915 | 0.916 | 0.898 | 0.639 | 0.123 | 0.102 | 0.497 | 0.582 | 0.352 | 0.0829 | 0.0666 | 0.758 | 0.739 | 0.539 | 0.0643 | 0.0409 | 0.499 | 0.515 | 0.352 | 0.166 | 0.142 |
